Data taken from paper PMC8232238 (Cells, 2021).

Legend:
[1] = molecular target: T1, HDAC6 (Homo sapiens, UniProt Q9UBN7); assay: HDAC6 enzyme inhibition assay (single point and 10-dose IC50, Reaction Biology); format: biochemical
T1 construct: purchased Reaction Biology corporation (contract assay)
T1 sequence (Q9UBN7 1-1215): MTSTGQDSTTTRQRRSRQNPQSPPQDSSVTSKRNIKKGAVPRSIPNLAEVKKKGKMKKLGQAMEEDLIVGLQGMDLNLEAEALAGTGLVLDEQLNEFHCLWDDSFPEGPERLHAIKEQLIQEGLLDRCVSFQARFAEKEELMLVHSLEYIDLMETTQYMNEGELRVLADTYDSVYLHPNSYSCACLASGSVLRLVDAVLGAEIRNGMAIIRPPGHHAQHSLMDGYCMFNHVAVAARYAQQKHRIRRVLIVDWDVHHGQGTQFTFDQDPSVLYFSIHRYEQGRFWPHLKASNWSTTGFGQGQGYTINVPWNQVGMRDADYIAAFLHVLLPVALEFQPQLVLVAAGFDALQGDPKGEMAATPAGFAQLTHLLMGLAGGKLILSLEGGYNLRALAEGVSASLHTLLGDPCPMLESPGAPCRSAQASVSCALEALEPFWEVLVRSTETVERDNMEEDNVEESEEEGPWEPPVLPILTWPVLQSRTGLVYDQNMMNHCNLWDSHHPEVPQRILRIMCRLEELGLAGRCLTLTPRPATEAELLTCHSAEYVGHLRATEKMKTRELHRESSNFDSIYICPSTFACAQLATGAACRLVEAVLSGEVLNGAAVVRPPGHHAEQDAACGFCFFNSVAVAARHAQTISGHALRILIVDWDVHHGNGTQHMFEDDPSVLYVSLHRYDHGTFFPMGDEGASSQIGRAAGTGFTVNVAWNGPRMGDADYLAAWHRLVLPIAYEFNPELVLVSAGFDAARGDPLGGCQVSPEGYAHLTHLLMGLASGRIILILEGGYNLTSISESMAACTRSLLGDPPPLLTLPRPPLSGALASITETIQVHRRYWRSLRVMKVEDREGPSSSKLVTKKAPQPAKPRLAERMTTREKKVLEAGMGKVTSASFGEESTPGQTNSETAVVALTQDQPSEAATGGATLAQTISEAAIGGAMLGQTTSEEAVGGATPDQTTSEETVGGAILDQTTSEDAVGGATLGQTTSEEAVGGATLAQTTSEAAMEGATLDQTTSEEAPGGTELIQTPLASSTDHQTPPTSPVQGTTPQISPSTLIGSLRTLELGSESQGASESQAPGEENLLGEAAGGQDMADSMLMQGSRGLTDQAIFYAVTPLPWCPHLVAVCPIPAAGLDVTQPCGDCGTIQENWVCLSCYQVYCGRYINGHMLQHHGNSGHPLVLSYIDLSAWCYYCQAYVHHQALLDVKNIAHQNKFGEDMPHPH
Experimental: Against HDAC6, inhibition was determined using 0.01 µM of the inhibitor.
(§1) All IC50 measurements we performed by Reaction Biology corporation. Compounds were tested in
(§2) dilution starting at 1 uM. […]
(§3) (RHK(Ac)K(Ac)AMC). IC50 values were calculated using the GraphPad Prism 4 program based on a
(§4) sigmoidal dose-response equation. […]

[2] = UV/Vis absorption and fluorescence (photophysical properties) in DMSO; format: physicochemical
Experimental: S1.6 UV/Vis and Fluorescence Data
UV/Vis analysis was performed on a Cary Eclipse 300 UV/Vis spectrophotometer and fluorescence measurements performed on a Cary Eclipse Fluorescence spectrophotometer. All analysis was performed in 10 mm quartz cuvettes using AR grade DMSO. Relative quantum yields were obtained by comparison to quinine sulfate (фf = 0.58 in 0.1 M H2SO4) with absorbance of samples adjusted so that the absorbance at 340 nm was similar to the reference.
Emission spectra were obtained by excitation at 340 nm. Quantum yield was obtained by use of the following equation and are reported as the average of two samples with error <5%; […]
Where фref is the literature quantum yield of the reference, η is the refractive index of the solvent (H2O = 1.333, DMSO = 1.479) and Is is the integrated fluorescence intensity of the sample with Iref being the same of the reference.
Table S1 – Photophysical properties of selected compounds in DMSO […]
†Average of two samples, ±1%

[3] = molecular target: T2, HDAC1 (Homo sapiens, UniProt Q13547); assay: HDAC1 enzyme inhibition assay (single point and 10-dose IC50, Reaction Biology); format: biochemical
T2 construct: purchased Reaction Biology corporation (contract assay)
T2 sequence (Q13547 whole entry): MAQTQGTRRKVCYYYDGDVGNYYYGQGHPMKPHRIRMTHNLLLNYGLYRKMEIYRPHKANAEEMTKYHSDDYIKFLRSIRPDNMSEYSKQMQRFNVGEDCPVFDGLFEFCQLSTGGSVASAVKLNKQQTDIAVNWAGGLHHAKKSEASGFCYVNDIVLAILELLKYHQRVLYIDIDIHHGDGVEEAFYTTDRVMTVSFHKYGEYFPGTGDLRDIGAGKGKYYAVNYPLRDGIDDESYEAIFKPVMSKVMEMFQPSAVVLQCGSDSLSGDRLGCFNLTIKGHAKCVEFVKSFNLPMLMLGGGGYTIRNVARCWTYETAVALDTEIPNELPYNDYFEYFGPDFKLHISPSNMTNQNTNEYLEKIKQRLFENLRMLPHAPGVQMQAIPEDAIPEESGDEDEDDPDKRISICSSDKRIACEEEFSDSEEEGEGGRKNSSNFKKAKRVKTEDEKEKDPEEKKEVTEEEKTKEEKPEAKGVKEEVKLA
Experimental: as §1, §2, §3, §4

[4] = average of two independent measurements

O=C(CCCCCN1C(=O)c2cccc3cc(NC(=O)c4ccccc4)cc(c23)C1=O)NO [KNH019]
IC50 [1, 4]: 1 ± 0.005 nM
HDAC6 average enzyme isoform activity (percentage of full enzyme activity) ([1]; single point, inhibitor 0.01 μM, average of two measurements, ±2%): 20.4%
λabs (absorption maximum) [2]: 343 nm
λabs (secondary absorption maximum) [2]: 374 nm
λem ([2]; excitation at 340 nm): 437 nm
Φf (fluorescence quantum yield) ([2]; relative to quinine sulfate, average of two samples): 0.05
IC50 [3, 4]: 91 ± 6 nM
Selectivity factor (SF) = HDAC1 IC50/HDAC6 IC50 ([3]; selectivity for HDAC6 over HDAC1): 91
HDAC1 average enzyme isoform activity (percentage of full enzyme activity) ([3]; single point, inhibitor 1.0 μM, average of two measurements, ±2%): 36.3%
